As usually defined, the melting point is the temperature of the solid-liquid transition.

Data set [1] concerns HCT116 colon adenocarcinoma. The data set can be described thus: Cytotoxicity assay (MTT), 6 days. In kind it is cell-based, human. The note with it: Homo sapiens, HCT-116, 144 h, 6 days of treatment, read-out: Toxicity 6d (IC 50, μM) HCT116. An excerpt: (§1) Four human tumoral cell lines, namely HCT116 colon adenocarcinoma, H460 lung carcinoma, MCF-7 and MDA-MB-231 breast carcinoma cell lines, and three immortalized but non tumorigenic cell lines, namely NIH3T3 mouse fibroblasts and human breast-derived MCF10-A and MRC-5 were purchased at ATCC and cultured according to their recommendations. In order to determine the cytotoxicity associated with one compound, a microculture tetrazolium assay (MTT), as described by Carmichael et al (Cancer Res, 1996) with modifications, was used. Briefly, 5.10^3 or 2.10^4 cells were seeded per well in 24-well plates 24 hours before drug addition. Cells were treated with 0, 1, 10, 17.5, 25 and 50 μM of compound solubilized in DMSO, adjusting the total volume of DMSO (Dimethylsulfoxide) to 1%. Forty-eight hours or 6 days after treatment, the medium was replaced by PBS containing 0.5 mg/ml MTT (Sigma) and cells were incubated for 3 more hours at 37° C. before solubilization of formazan crystals in 100% DMSO. Absorbance was measured using a spectrophotometer at a wavelength of 550 nm. Cell surviving fraction and 50% inhibitory concentration were calculated. All assays were performed in triplicate.

Data set [2] concerns MDA-MB-231 breast carcinoma. Description: Cytotoxicity assay (MTT), 6 days. The data set is classed as cell-based. The note with it: Homo sapiens, MDA-MB-231, 144 h, 6 days of treatment, read-out: Toxicity 6d (IC 50, μM) MDA231.
Description: as §1

A further data set has as its system H460 lung carcinoma. The data set can be described thus: Cytotoxicity assay (MTT), 6 days. The data set is classed as cell-based. Conditions: Homo sapiens, NCI-H460, 144 h, 6 days of treatment, read-out: Toxicity 6d (IC 50, μM) H460.
Description: as §1

The next data set has as its system MCF-7 breast carcinoma. The data set can be described thus: Cytotoxicity assay (MTT), 6 days. The data set is classed as cell-based. Conditions: Homo sapiens, MCF7, 144 h, 6 days of treatment, read-out: Toxicity 6d (IC 50, μM) MCF7.
Description: as §1

A value given as a limit tells only on which side of the number the result lay.

Compound `C/C=C/c1oc(CO)cc(=O)c1OCCCCCOc1cc(Cl)cc(Cl)c1CCC` [EHT 9916, (E)-3-[5-(3,5-Dichloro-2-propyl-phenoxy)-pentyloxy]-6-hydroxymethyl-2-propenyl-4H-pyran-4-one] yielded a melting point of 91 to 93 °C.

Consider `CCCc1cc(Cl)ccc1OCCCCCOc1coc(CO)cc1=O` [EHT 6152, 5-[5-(4-Chloro-2-propyl-phenoxy)pentyloxy]-2-hydroxymethyl-4H-pyran-4-one], for which the melting point fell in the range of 92 to 94 °C.

In turn, `O=C(OCc1cc(=O)c(OCCCCCn2ccc3ccccc32)co1)c1ccccc1` [EHT 6517, Benzoic acid 5-(5-indol-1-yl-pentyloxy)-4-oxo-4H-pyran-2-ylmethyl ester] registered a melting point of 71 to 73 °C.

As for `CCCc1c(OCCCCCOc2coc(C(=O)O)cc2=O)ccc(Cl)c1Cl` [EH27900], the IC50 was more than 50 µM in data set [1], more than 25 µM in data set [2], more than 50 µM with H460 lung carcinoma and 40 µM in the data set on MCF-7 breast carcinoma.

As to `O=C(O)c1cc(=O)c(OCCCCCOc2cccc(Cl)c2)co1` [EH15700, 5-[5-(3-Chlorophenyloxy)pentyloxy]-4-oxo-4H-pyran-2-carboxylic acid], the IC50 is more than 50 µM in data set [1], 20 µM in data set [2], more than 50 µM in the data set with H460 lung carcinoma and more than 50 µM in the data set on MCF-7 breast carcinoma.

`O=C(OCc1cc(=O)c(OCCCCCn2ccc3ccccc32)co1)c1ccc(Cl)cc1` [EHT 0078, 4-Chloro-benzoic acid 5-(5-indol-1-yl-pentyloxy)-4-oxo-4H-pyran-2-ylmethyl ester]: the melting point was 215 to 220 °C.

In turn, `CCNC(=O)OCc1cc(=O)c(OCCCCCn2ccc3ccccc32)co1` [EHT 1120, Ethyl-carbamic acid 5-(5-indol-1-yl-pentyloxy)-4-oxo-4H-pyran-2-ylmethyl ester] showed a melting point of 81 to 83 °C.

As for `C/C=C/c1oc(CO)cc(=O)c1OCCCCCOc1ccc(F)c(F)c1` [EHT 8307], the melting point fell in the range of 86 to 87 °C.

In turn, `C/C=C/c1oc(CO)cc(=O)c1OCCCCCOc1ccc(C#N)c(F)c1` [EHT 4112, (E)-2-Fluoro-4-[5-(6-hydroxymethyl-4-oxo-2-propenyl-4H-pyran-3-yloxy)-pentyloxy]-benzonitrile] registered a melting point of 123 to 125 °C.

Regarding `O=C(OCc1cc(=O)c(OCCCCCn2ccc3ccccc32)co1)c1ccoc1` [EHT 4167, Furan-3-carboxylic acid 5-(5-indol-1-yl-pentyloxy)-4-oxo-4H-pyran-2-ylmethyl ester], the melting point was 103 to 105 °C (dec.).

For `O=C(O)c1cc(=O)c(OCCCCOc2ccc(Cl)c(Cl)c2)co1` [EH20700, 5-[4-(3,4-Dichlorophenyloxy)butyloxy] oxo-4H-pyran-2-carboxylic acid], the IC50 (in data set [1]; in data set [2]; in the data set on H460 lung carcinoma; with MCF-7 breast carcinoma) was more than 50 µM in each case.

For the compound `O=C(O)c1cc(=O)c(OCCCCCOc2ccc(Cl)c(Cl)c2)co1` [EH6600, 5-[5-(3,4-Dichlorophenyloxy)pentyloxy]-4-oxo-4H-pyran-2-carboxylic acid], the IC50 was more than 50 µM in data set [1], more than 25 µM in data set [2], more than 50 µM with H460 lung carcinoma and 30 µM in the data set on MCF-7 breast carcinoma.

On to `O=C(O)c1cc(=O)c(OCCCCCOc2ccc(Cl)cc2)co1` [EH17600, 5-[5-(4-Chlorophenyloxy)pentyloxy]-4-oxo-4H-pyran-2-carboxylic acid], for which the IC50 is more than 50 µM in data set [1], more than 25 µM in data set [2], more than 50 µM with H460 lung carcinoma and 17.5 µM with MCF-7 breast carcinoma.

With `CCCc1ccccc1OCCCCCOc1coc(C(=O)O)cc1=O` [EH26900, 5-[5-(2-Propylphenyloxy)pentyloxy]-4-oxo-4H-pyran-2-carboxylic acid], the IC50 (in data set [1]; in data set [2]; with H460 lung carcinoma; with MCF-7 breast carcinoma) was more than 50 µM in each case.

For the origin of these results see US20050054629A1, “Compounds and methods of treating cell proliferative diseases” (priority 2002, published 2005).
